# From the supplement of paper PMC10307832
# Compound: NCC(=O)Nc1ccc(-n2nc(C(F)(F)F)cc2-c2ccc3c(ccc4ccccc43)c2)cc1 + CS(=O)(=O)CCNCc1ccc(-c2ccc3ncnc(Nc4ccc(OCc5cccc(F)c5)c(Cl)c4)c3c2)o1 [Lapatinib] (partner 2 µM)
# Assay: relative viability (nuclei count vs DMSO), 5 days (fraction); higher = more cells survive
# Details: first compound 2 µM
# In short: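 Cells from lung cancer lines were seeded into 1536-well plates and, one day later, dosed by pin tool. Treatments were either a single drug or a fixed dose of an anchor drug with five library-drug doses (not always all listed) in √10 steps. After 5 days, nuclei were stained in a one-step fixation (final 0.05% Triton X-100, 1% formaldehyde, 1 ug/ml Hoechst) and counted on 4× images, and relative viability is the treated-to-vehicle nuclei ratio, as the median of duplicate plates.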
row,Cell Line,relative viability
1,PC-3 [JPC-3],0.528

# Compound: C1CSC2=C(C(=O)N1)SC3=C2C=C(C=C3)O [kb NB 142-70]
# Assay: relative viability (nuclei count vs DMSO), 5 days (fraction); higher = more cells survive
# Details: 0.1 µM
# In short: (§1)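 Five library-drug doses spaced by √10 were pinned onto vehicle-anchored 1536-well plates of lung cancer cell lines that had been kept overnight at 37 °C. Cells went 5 days without medium change, then were fixed, permeabilised and Hoechst-stained together, imaged at 4× and counted by MetaXpress. Viability is the ratio of treated-well to vehicle-well nuclei, taken as a median over plates. Plates required control CV below 25% and at least one doubling.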
row,Cell Line,relative viability
1,NCI-H2228,1.04
2,NCI-H1792,0.928
3,NCI-H1355,1.02
4,NCI-H3122,0.962
5,NCI-H1437,0.986
6,NCI-H1755,0.988
7,NCI-H2023,1.07
8,HCC-15,1.03
9,NCI-H1793,0.911
10,PC-14,0.958
11,EKVX,0.933
12,LC-2-ad,1.09
13,NCI-H1563,1.04
14,NCI-H1944,1.08
15,NCI-H1975,0.902
16,RERF-LC-KJ,0.988
17,ABC-1,0.984
18,NCI-H358,0.943
19,NCI-H650,1.02
20,PC-3 [JPC-3],1

# Same assay, conditions: 1 µM
row,Cell Line,relative viability
1,NCI-H2228,1.33
2,NCI-H1792,0.937
3,NCI-H1355,0.885
4,NCI-H3122,0.982
5,NCI-H1437,1
6,NCI-H1755,0.986
7,NCI-H2023,0.946
8,HCC-15,1
9,NCI-H1793,1.11
10,PC-14,0.973
11,EKVX,0.981
12,LC-2-ad,0.977
13,NCI-H1563,1.02
14,NCI-H1944,0.978
15,NCI-H1975,0.982
16,RERF-LC-KJ,1.04
17,ABC-1,0.985
18,NCI-H358,0.725
19,NCI-H650,0.906
20,PC-3 [JPC-3],1.07

# Same assay, conditions: 3.162 µM
row,Cell Line,relative viability
1,NCI-H2228,0.699
2,NCI-H1792,0.915
3,NCI-H1355,1.01
4,NCI-H3122,0.969
5,NCI-H1437,0.975
6,NCI-H1755,1.02
7,NCI-H2023,0.642
8,HCC-15,0.978
9,NCI-H1793,0.863
10,PC-14,0.954
11,EKVX,0.988
12,LC-2-ad,0.886
13,NCI-H1563,1
14,NCI-H1944,1.07
15,NCI-H1975,0.656
16,RERF-LC-KJ,0.921
17,ABC-1,0.494
18,NCI-H358,0.137
19,NCI-H650,0.825
20,PC-3 [JPC-3],1.05

# Compound: NCC(=O)Nc1ccc(-n2nc(C(F)(F)F)cc2-c2ccc3c(ccc4ccccc43)c2)cc1
# Assay: as above
# Details: 0.02 µM
# In short: as §1
row,Cell Line,relative viability
1,NCI-H2228,1
2,NCI-H1792,1.05
3,NCI-H1355,0.971
4,NCI-H3122,1.01
5,NCI-H1437,0.975
6,NCI-H1755,1.01
7,NCI-H2023,0.952
8,HCC-15,1
9,NCI-H1793,0.984
10,PC-14,1.05
11,EKVX,1.03
12,LC-2-ad,0.951
13,NCI-H1563,0.992
14,NCI-H1944,0.822
15,NCI-H1975,0.91
16,RERF-LC-KJ,1.05
17,ABC-1,0.914
18,NCI-H358,0.965
19,NCI-H650,0.866
20,PC-3 [JPC-3],0.996

# Same assay, conditions: 0.06325 µM
row,Cell Line,relative viability
1,NCI-H2228,1.04
2,NCI-H1792,0.812
3,NCI-H1355,1.07
4,NCI-H3122,1.02
5,NCI-H1437,1.05
6,NCI-H1755,1.03
7,NCI-H2023,1.06
8,HCC-15,1.06
9,NCI-H1793,1.08
10,PC-14,1.06
11,EKVX,1.01
12,LC-2-ad,1.08
13,NCI-H1563,0.954
14,NCI-H1944,0.973
15,NCI-H1975,0.887
16,RERF-LC-KJ,1.01
17,ABC-1,0.926
18,NCI-H358,0.993
19,NCI-H650,0.977
20,PC-3 [JPC-3],1.08

# Same assay, conditions: 0.2 µM
row,Cell Line,relative viability
1,NCI-H2228,1.1
2,NCI-H1792,0.875
3,NCI-H1355,0.883
4,NCI-H3122,1.01
5,NCI-H1437,0.957
6,NCI-H1755,1.04
7,NCI-H2023,0.957
8,HCC-15,0.963
9,NCI-H1793,0.86
10,PC-14,0.954
11,EKVX,0.971
12,LC-2-ad,1
13,NCI-H1563,0.997
14,NCI-H1944,0.966
15,NCI-H1975,1.03
16,RERF-LC-KJ,0.993
17,NCI-H358,0.925
18,NCI-H650,0.981
19,PC-3 [JPC-3],1.01

# Same assay, conditions: 0.6325 µM
row,Cell Line,relative viability
1,NCI-H2228,1.03
2,NCI-H1792,0.95
3,NCI-H1355,1.02
4,NCI-H3122,1.01
5,NCI-H1437,1.01
6,NCI-H1755,0.966
7,NCI-H2023,1.06
8,HCC-15,1.03
9,NCI-H1793,0.915
10,PC-14,0.964
11,EKVX,0.966
12,LC-2-ad,0.968
13,NCI-H1563,1.02
14,NCI-H1944,0.965
15,NCI-H1975,0.972
16,RERF-LC-KJ,1.01
17,ABC-1,0.996
18,NCI-H358,0.939
19,NCI-H650,0.866
20,PC-3 [JPC-3],1.02

# Same assay, conditions: 2 µM
row,Cell Line,relative viability
1,NCI-H2228,0.797
2,NCI-H1792,0.911
3,NCI-H1355,0.995
4,NCI-H3122,1
5,NCI-H1437,0.946
6,NCI-H1755,0.986
7,NCI-H2023,0.922
8,HCC-15,1.02
9,NCI-H1793,1.08
10,PC-14,1.02
11,EKVX,1.01
12,LC-2-ad,1.01
13,NCI-H1563,0.968
14,NCI-H1944,0.899
15,NCI-H1975,1.03
16,RERF-LC-KJ,1
17,ABC-1,0.86
18,NCI-H358,0.94
19,NCI-H650,1.02
20,PC-3 [JPC-3],1.14
